# Earlier results as cited in patent US9918950B2, “Targeted treatment of anerobic cancer” (University Hospitals Cleveland Medical Center, priority 2012, dated 2018).
# How the values were obtained:
# [1] = tested on: HCT116 human colon carcinoma cells; conditions: HCT116 window chamber tumors
# [2] = tested on: 4T1 mouse mammary carcinoma cells; conditions: 4T1 window chamber tumors
compound,measurement,setting,value
Nc1n[n+]([O-])c2ccccc2[n+]1[O-] [tirapazamine],time required for onset of incipient angiogenesis versus saline treatment,"[1]; n=8, log-rank P=0.33",No significant difference
same,median time required for the initial hypoxic response,"[1]; versus 3.5 days saline, Kaplan-Meier, n=8, P<0.001",9.5 days
same,time required for incipient angiogenesis versus saline treatment,"[2]; n=8, log-rank P=0.66",No significant difference
same,median time required for the initial hypoxic response,"[2]; versus 4 days saline, n=8, P<0.05",5.5 days
